Patent US20260240844A1, “INHIBITORS OF CHD1L AND USES THEREOF” (The Regents of the University of Colorado, a body corporate, priority 2023, published 2026)
Entries after “also recorded” stand apart in the source; their conditions may differ. Like-named read-outs stand apart in the source and are kept apart here.

How the values were obtained:
SW948 tumor organoids = assay: cells
Method: ATM is an important protein involved in the initial stages of the DNA damage response. […] ATM mutations are important markers being developed to identify metastatic CRC (mCRC) patients that may be sensitive to DNA damaging chemotherapy.
Synergy was assessed using the Bliss model.

SUM149PT cells = assay: Cell cycle analysis by flow cytometry; format: cell-based
Method: Cells were then harvested by trypsinization, washed with PBS and fixed with 70% ice-cold ethanol for at least 2 h. The fixed cells were centrifuged at 300 g for 10 min, resuspended in PBS, centrifuged again, and stained in a 0.5 μg/mL DAPI solution in 0.1% Triton X-100-PBS for 30 min at RT. Samples were measured on a NovoCyte Penteon Cytometer (Agilent) and cell cycle distribution of single cells was analyzed using the automatic settings of FlowJo V10 (BD Biosciences).
Upon generation of DNA lesions, DNA damage checkpoints are also activated, which can lead to an arrest of the cell cycle, restraining chromosome segregation until the damaged DNA has been repaired. To study the effect of TNBC therapies and inhibition of CHD1L on the cell cycle, cells were stained with DAPI, and the cell subpopulations in G1, S and G2/M phases were analyzed by flow cytometry. […] Remarkably, the combination of these drugs with CHD1Li enhanced their effects, potentiating G2/M arrest caused by olaparib and G1 arrest caused by 5-FU (FIG. 23).

Colo678 cells = assay: Colo678 cell viability, combination with chemotherapy; format: cell-based; conditions: for IC50: Homo sapiens, COLO-678, Colo678 cells, read-out: IC50 5-FU
AIF in SUM149PT cells = assay: AIF immunofluorescence in SUM149PT (SUM149) cells; format: cell-based; conditions: for cytoplasmic AIF / nuclear AIF: SUM149PT cells, single agent, 18 h
Text: (§1) CHD1Li-mediated PAR translocation to the cytoplasm activates PARthanatos as a cell death mechanism. Parthanatos is a form a programmed cell death different from apoptosis and known to be mediated by PARP1 overactivation. The unique events occurring during parthanatos are: PARP1 rapid activation, accumulation of PAR and nuclear translocation of apoptosis inducing factor (AIF). Without being bound by any particular theory, accumulation of PAR in the cytoplasm caused by CHD1Li can also mediate parthanatos. To better understand the link between PAR translocation to the cytoplasm and cell death, immunofluorescence to measure the activation of caspase-3 and the subcellular localization of AIF after treatment with SOC drugs and Compound 6 in SUM49PT cells was used. […] Without being bound by any particular theory, this might be caused by the mitochondrial outer membrane permeabilization, which triggers release of mitochondrial proteins like AIF or cytochrome c, activating caspase-3 by its cleavage and leading to apoptosis. […] Moreover, when combining CHD1L inhibition with SOC drugs, the cell death mechanism shifts from apoptosis to parthanatos, evidenced by a significant increase in AIF nuclear translocation and decrease in activation of caspase-3 (FIG. 25D-E).
The ability of Compounds 12, 15 and 16 to localize AIF was tested in SUM149 (breast cancer) and MDA-MB-231 (TNBC) cell lines. A comparison of the relative distribution of AIF in nuclei (a) versus cytoplasm (b) in SUM149 cells and nuclei (c) versus cytoplasm (d) in MDA-MB-231 cells in the presence of 4 μM Compounds 12, 15 and 16 are shown in FIG. 28. […] Similarly, AIF concentration in the cytoplasm of MDA-MB-231 cells decreased by about 0.5 after administration with Compound 15. After treatment with Compound 16, the relative concentration of AIF in the nuclei of SUM149 cells increased by about 0.5-fold, and the concentration of AIF in the cytoplasm decreased by about 0.4-fold. In MDA-MB-231 cells, the relative concentration of AIF in the cytoplasm decreased by about 0.5-fold, while the concentration of AIF increased in the nuclei by about 0.1-fold.

PAR in SUM149PT cells = assay: PAR immunofluorescence (nuclear / cytoplasmic PAR); format: cell-based; conditions: for nuclear PAR (PARylation) / cytoplasmic PAR: SUM149PT cells, single agent; for nuclear PAR (PARylation): 4 h
Text: Inhibition of CHD1L promotes PAR translocation to the cytoplasm. The main role of PARP1 during the DDR is to detect and signal the recruitment of repair machinery to the sites of DNA damage. For that, PARP1/2 catalyze PARylation, which is a pivotal […] protein modification, consisting of the addition of ADP-ribose units to the carboxyl group of acidic residues such as glutamate or aspartate on target proteins by using NAD^+ as substrate. CHD1L is one of the proteins that requires binding to these PAR chains for its activation and subsequent chromatin remodeling. Using immunofluorescence of PAR, the effect of PARPi and CHD1Li on PARylation in SUM149PT cells was investigated. […] In addition, the effect of doxorubicin on nuclear PARylation was reverted by CHD1L inhibition, causing an increase of PAR in the cytoplasm (FIG. 25A-C).

PARP2 [1] = biological target: T1, PARP2 (Homo sapiens, UniProt Q9UGN5); assay: PARP2 enzymatic (colorimetric) assay; format: biochemical
Method: . First, a 96 well plate was coated with histones. Next, the biotinylated NAD^+ substrate was incubated with an activated DNA template, the inhibitor to test and the PARP1/2 enzyme for 1 h at RT. After that, the sample plate was treated with streptavidin-RP for 30 min at RT, followed by addition of the horseradish peroxidase (HRP) substrate until the colorimetric signal was developed. The EnVision plate reader (PerkinElmer) was used to measure the absorbance at 450 nm and the results were plotted and analyzed using GraphPad Prism.

SW620 tumor organoids = conditions: SW620 tumor organoids
PARP2 [2] = biological target: T1, PARP2; assay: PARP2 trapping (in situ subcellular fractionation, immunofluorescence); format: cell-based; parameters: endogenous in cells; host or cells: SUM149PT; conditions: SUM149PT cells, 0.01% MMS, 4 h
Method: PARP1/2 and CHD1L trapping—PARP1, PARP2 and CHD1L trapping were assessed. SUM149PT cells were plated at a density of 20,000 cells per well into clear bottom black 96-well plates (PerkinElmer). […] After 4 h incubation, cell media was aspirated and cells were treated for 10 min at 4° C. with cold cytoskeleton (CSK) buffer (10 mM PIPES pH=6.8, 300 mM sucrose, 200 mM NaCl, 3 mM MgCl2) supplemented with 0.6% Triton X-100. […] PARP1 (anti-PARP1 antibody, 1:2000, O/N, 4° C.), PARP2 (anti-PARP2, 1:1000, O/N, 4° C.) and CHD1L (anti-CHD1L, 1:1000, O/N, 4° C.) primary antibodies were then added in antibody dilution buffer (2% BSA in PBS) and incubated O/N at 4° C.
To study the accumulation of bound PARP1/2 on chromatin, in situ subcellular fractioning of SUM149PT cells co-treated with 0.01% methyl methanesulfonate (MMS) and the drug of interest was used, followed by immunofluorescence.

caspase-3 = assay: Caspase-3 cleavage activation; format: cell-based; conditions: for caspase-3 cleavage activation: single agent
Method: AIF in the cytoplasm and nucleus was examined. […] Finally, caspase-3 cleavage activation, an apoptosis marker, was measured (FIG. 16D).
as §1

[3] = SW948 tumor organoids, combined with 5FU
[4] = SW948 tumor organoids, combined with SN38

T1 sequence (Q9UGN5 whole entry): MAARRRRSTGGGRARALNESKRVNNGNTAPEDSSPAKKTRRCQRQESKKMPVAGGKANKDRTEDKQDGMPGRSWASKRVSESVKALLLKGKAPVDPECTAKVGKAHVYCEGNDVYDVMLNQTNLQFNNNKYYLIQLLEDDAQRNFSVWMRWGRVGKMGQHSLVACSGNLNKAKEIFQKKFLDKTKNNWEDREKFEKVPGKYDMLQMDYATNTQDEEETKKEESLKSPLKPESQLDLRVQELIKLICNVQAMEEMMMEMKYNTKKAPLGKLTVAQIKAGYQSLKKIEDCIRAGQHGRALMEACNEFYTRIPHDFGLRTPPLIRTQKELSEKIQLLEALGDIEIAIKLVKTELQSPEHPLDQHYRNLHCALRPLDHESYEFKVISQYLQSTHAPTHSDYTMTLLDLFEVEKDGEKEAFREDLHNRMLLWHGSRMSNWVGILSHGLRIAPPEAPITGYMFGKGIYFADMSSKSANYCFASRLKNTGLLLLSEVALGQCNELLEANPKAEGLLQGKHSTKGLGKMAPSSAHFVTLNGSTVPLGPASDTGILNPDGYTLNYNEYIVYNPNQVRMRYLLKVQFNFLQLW

Compound: O=c1[nH]cc(F)c(=O)[nH]1 [Compound 5-FU, 5-fluorouracil]
- IC50 (SW948 tumor organoids; Homo sapiens, SW948, read-out: IC50 of chemotherapy alone): 302 µM
- increase in potency of the chemotherapy (SW948 tumor organoids; SW948 tumor organoids, combined with Compound 6): ~300 fold
- increase in number of cells in G1 phase compared to untreated cells (SUM149PT cells; 24 h): 16%
- IC50 (Colo678 cells; Compound 6.11 0 μM): 3430 µM
- IC50 (Colo678 cells; Compound 6.11 3 μM): 717 µM
- IC50 (Colo678 cells; Compound 6.11 3.25 μM): 99.4 µM
- IC50 (Colo678 cells; Compound 6.11 3.5 μM): 58.5 µM
- IC50 (Colo678 cells; Compound 12 0 μM): 75100 µM
- IC50 (Colo678 cells; Compound 12 1 μM): 549 µM
- IC50 (Colo678 cells; Compound 12 1.5 μM): 392 µM
- IC50 (Colo678 cells; Compound 12 2 μM): 205 µM
- IC50 (Colo678 cells; Compound 13 0 μM): 7520 µM
- IC50 (Colo678 cells; Compound 13 3.5 μM): 544 µM
- IC50 (Colo678 cells; Compound 13 3.75 μM): 432 µM
- IC50 (Colo678 cells; Compound 13 4 μM): 246 µM
- IC50 (Colo678 cells; Compound 14 2.5 μM): 149 µM
- IC50 (Colo678 cells; Compound 14 2.75 μM): 74.7 µM
- IC50 (Colo678 cells; Compound 14 3 μM): 50.4 µM
- IC50 (Colo678 cells; Compound 20 0 μM): 14800 µM
- IC50 (Colo678 cells; Compound 20 3.5 μM): 170 µM
- IC50 (Colo678 cells; Compound 20 4 μM): 60 µM
- IC50 (Colo678 cells; Compound 20 4.5 μM): 34.5 µM

Compound: Cc1cc(Nc2ccc(NC(=O)Cc3cccs3)cc2)nc(N2CCCC2)n1 [Compound 6, N-(4-((6-methyl-2-(pyrrolidin-1-yl)pyrimidin-4-yl)amino)phenyl)-2-(thiophen-2-yl)acetamide]
- cytoplasmic AIF (AIF in SUM149PT cells): decrease in cytoplasmic AIF
- nuclear AIF (AIF in SUM149PT cells): significantly increasing AIF in the nucleus
- cell cycle effect (SUM149PT cells; 24 hours, 0.2 μM): arrest in S and G2/M phases
- nuclear PAR (PARylation) (PAR in SUM149PT cells): caused the same effects as PARPi
- PARP2 enzyme activity (PARP2 [1]): does not have any effect on PARP1/2 activity

Compound: Cc1cc(Nc2ccc(NC(=O)Cc3cc(Br)cs3)cc2)nc(N2CCCC2)n1 [Compound 6.11, 2-(4-bromothiophen-2-yl)-N-(4-((6-methyl-2-(pyrrolidin-1-yl)pyrimidin-4-yl)amino)phenyl)acetamide]
- synergy score (SW620 tumor organoids; Compound 6.11 2.75 μM combined with 5FU): ~ 30
- AIF nuclear translocation in combination (AIF in SUM149PT cells; Compound 6.11 combined with doxorubicin or irinotecan/SN-38): resulted in AIF nuclear translocation
- cytoplasmic AIF (AIF in SUM149PT cells): did not affect cytoplasmic AIF
- nuclear AIF (AIF in SUM149PT cells): increased nuclear AIF
- increase in PARP2 trapping (PARP2 [2]): 2 fold
- Mean Synergy Score (SW948 tumor organoids; [3]): ~ 72
- maximum synergy score (SW948 tumor organoids; [3]): ~82
- Mean Synergy Score (SW948 tumor organoids; [4]): ~ 74
- maximum synergy score (SW948 tumor organoids; [4]): ~100
- PAR localization (PAR in SUM149PT cells; Compound 6.11 combined with doxorubicin): shifted PAR to the cytoplasm
- cytoplasmic PAR (PAR in SUM149PT cells): increased cytoplasmic PAR
- calculated mean synergy score (Colo678 cells; Colo678 cells, 72 h, combined with SN-38): about 41
- caspase-3 activation (caspase-3; Compound 6.11 combined with SN-38): enhanced caspase-3 activation
- caspase-3 cleavage activation (caspase-3): did not induce caspase-3 activation

Compound: COc1cccc2c1C(=O)c1c(O)c3c(c(O)c1C2=O)C[C@@](O)(C(=O)CO)C[C@@H]3O[C@H]1C[C@H](N)[C@H](O)[C@H](C)O1 [doxorubicin]
- nuclear AIF (AIF in SUM149PT cells): some increase of AIF in the nucleus
- cytoplasmic PAR (PAR in SUM149PT cells): no effect on cytoplasmic PAR
- nuclear PAR (PARylation) (PAR in SUM149PT cells): increased PARylation in the nucleus
- nuclear PAR (PARylation) (PAR in SUM149PT cells; listed as Doxorubicin): increased nuclear PAR
- cytoplasmic PAR (PAR in SUM149PT cells; listed as Doxorubicin): did not elevate cytoplasmic PAR
- caspase-3 cleavage activation (caspase-3): activation of apoptosis by cleavage of caspase-3

Compound: O=C(c1cc(Cc2n[nH]c(=O)c3ccccc23)ccc1F)N1CCN(C(=O)C2CC2)CC1 [olaparib]
- enhancement of olaparib potency (SW620 tumor organoids; combined with Compound 6.11): ~ 355 fold
- cytoplasmic AIF (AIF in SUM149PT cells): increased cytoplasmic AIF; also recorded: increase in the AIF intensity in the cytoplasm
- nuclear AIF (AIF in SUM149PT cells): did not enhance nuclear AIF; also recorded: no translocation of this protein to the nucleus
- PARP2 trapping (PARP2 [2]): trapped in a dose-dependent manner both PARP1 and PARP2
- increase in the percentage of cells in the G2/M phase (SUM149PT cells; 24 h): 2 fold
- cytoplasmic PAR (PAR in SUM149PT cells): increased cytoplasmic PAR; also recorded: increase in cytoplasmic PAR
- nuclear PAR (PARylation) (PAR in SUM149PT cells): inhibition of nuclear PARylation
- PARP2 enzyme activity (PARP2 [1]): inhibits both PARP1 and PARP2
